Test results: patent US8192962B2, “Processes for detecting toxic substances” (Daikin Industries, Ltd., priority 2001, dated 2012)

Test system: Detoxification protein genes
Assay: DNA chip mRNA expression in yeast, detoxification protein genes (Table 8)
Type: cell-based, Saccharomyces cerevisiae S288C
Procedure, shortened: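 Untreated cultures served as reference for log-phase S288C yeast given a growth-inhibiting, non-lethal toxicant dose for 2 h at 25° C. in YPD. Gene expression was measured on a whole-genome DNA chip from Cy3/Cy5-labeled cDNA.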

Question: How did the “The level of expressed mRNA in the presence of chemical substance/The level of expressed mRNA in the absence of chemical substance” value (yeast gene YBL064C) turn out when `[Cl][Cd][Cl]` [(2), CdCl2] was run?
Answer: Its value is 2.8.

Question: What about the “The level of expressed mRNA in the presence of chemical substance/The level of expressed mRNA in the absence of chemical substance” value (yeast gene YBR008C) of the same compound?
Answer: The value was 2.4.

Question: What about the “The level of expressed mRNA in the presence of chemical substance/The level of expressed mRNA in the absence of chemical substance” value (yeast gene YBR145W) of the same compound?
Answer: Its value is 0.7.

Question: What about the “The level of expressed mRNA in the presence of chemical substance/The level of expressed mRNA in the absence of chemical substance” value (yeast gene YBR244W) of the same compound?
Answer: The value was 1.4.

Question: And the “The level of expressed mRNA in the presence of chemical substance/The level of expressed mRNA in the absence of chemical substance” value (yeast gene YBR293W)?
Answer: The value was 3.1.

Question: And the “The level of expressed mRNA in the presence of chemical substance/The level of expressed mRNA in the absence of chemical substance” value (yeast gene YCL035C)?
Answer: The value was 2.3.

Question: And the “The level of expressed mRNA in the presence of chemical substance/The level of expressed mRNA in the absence of chemical substance” value (yeast gene YCL069W)?
Answer: The value was 15.7.

Question: What about the “The level of expressed mRNA in the presence of chemical substance/The level of expressed mRNA in the absence of chemical substance” value (yeast gene YCR083W) of the same compound?
Answer: Its value is 2.8.

Question: What about the “The level of expressed mRNA in the presence of chemical substance/The level of expressed mRNA in the absence of chemical substance” value (yeast gene YDL100C) of the same compound?
Answer: Its value is 1.2.

Question: And the “The level of expressed mRNA in the presence of chemical substance/The level of expressed mRNA in the absence of chemical substance” value (yeast gene YDL168W)?
Answer: The value was 2.0.

Question: And the “The level of expressed mRNA in the presence of chemical substance/The level of expressed mRNA in the absence of chemical substance” value (yeast gene YDR256C)?
Answer: Its value is 1.4.

Question: What about the “The level of expressed mRNA in the presence of chemical substance/The level of expressed mRNA in the absence of chemical substance” value (yeast gene YDR453C) of the same compound?
Answer: Its value is 2.7.

Question: What about the “The level of expressed mRNA in the presence of chemical substance/The level of expressed mRNA in the absence of chemical substance” value (yeast gene YDR513W) of the same compound?
Answer: Its value is 2.5.

Question: And the “The level of expressed mRNA in the presence of chemical substance/The level of expressed mRNA in the absence of chemical substance” value (yeast gene YDR538W)?
Answer: The value was 1.1.

Question: What about the “The level of expressed mRNA in the presence of chemical substance/The level of expressed mRNA in the absence of chemical substance” value (yeast gene YEL027W) of the same compound?
Answer: The value was 0.6.

Question: And the “The level of expressed mRNA in the presence of chemical substance/The level of expressed mRNA in the absence of chemical substance” value (yeast gene YEL065W)?
Answer: Its value is 3.8.

Question: And the “The level of expressed mRNA in the presence of chemical substance/The level of expressed mRNA in the absence of chemical substance” value (yeast gene YER185W)?
Answer: The value was 3.1.

Question: And the “The level of expressed mRNA in the presence of chemical substance/The level of expressed mRNA in the absence of chemical substance” value (yeast gene YFL050C)?
Answer: The value was 1.0.

Question: And the “The level of expressed mRNA in the presence of chemical substance/The level of expressed mRNA in the absence of chemical substance” value (yeast gene YGL013C)?
Answer: Its value is 1.2.

Question: And the “The level of expressed mRNA in the presence of chemical substance/The level of expressed mRNA in the absence of chemical substance” value (yeast gene YGL254W)?
Answer: Its value is 1.1.

Question: What about the “The level of expressed mRNA in the presence of chemical substance/The level of expressed mRNA in the absence of chemical substance” value (yeast gene YGR088W) of the same compound?
Answer: The value was 1.2.

Question: What about the “The level of expressed mRNA in the presence of chemical substance/The level of expressed mRNA in the absence of chemical substance” value (yeast gene YGR138C) of the same compound?
Answer: The value was 1.6.

Question: And the “The level of expressed mRNA in the presence of chemical substance/The level of expressed mRNA in the absence of chemical substance” value (yeast gene YGR197C)?
Answer: The value was 2.4.

Question: What about the “The level of expressed mRNA in the presence of chemical substance/The level of expressed mRNA in the absence of chemical substance” value (yeast gene YGR209C) of the same compound?
Answer: Its value is 3.1.

Question: And the “The level of expressed mRNA in the presence of chemical substance/The level of expressed mRNA in the absence of chemical substance” value (yeast gene YGR224W)?
Answer: Its value is 1.2.

Question: And the “The level of expressed mRNA in the presence of chemical substance/The level of expressed mRNA in the absence of chemical substance” value (yeast gene YHL040C)?
Answer: The value was 4.4.

Question: What about the “The level of expressed mRNA in the presence of chemical substance/The level of expressed mRNA in the absence of chemical substance” value (yeast gene YHL047C) of the same compound?
Answer: Its value is 4.4.

Question: What about the “The level of expressed mRNA in the presence of chemical substance/The level of expressed mRNA in the absence of chemical substance” value (yeast gene YHR008C) of the same compound?
Answer: The value was 6.9.

Question: And the “The level of expressed mRNA in the presence of chemical substance/The level of expressed mRNA in the absence of chemical substance” value (yeast gene YHR048W)?
Answer: Its value is 1.4.

Question: And the “The level of expressed mRNA in the presence of chemical substance/The level of expressed mRNA in the absence of chemical substance” value (yeast gene YHR053C)?
Answer: The value was 2.1.

Question: And the “The level of expressed mRNA in the presence of chemical substance/The level of expressed mRNA in the absence of chemical substance” value (yeast gene YHR055C)?
Answer: The value was 1.8.

Question: What about the “The level of expressed mRNA in the presence of chemical substance/The level of expressed mRNA in the absence of chemical substance” value (yeast gene YIR002C) of the same compound?
Answer: Its value is 1.1.

Question: And the “The level of expressed mRNA in the presence of chemical substance/The level of expressed mRNA in the absence of chemical substance” value (yeast gene YIR038C)?
Answer: Its value is 3.5.

Question: What about the “The level of expressed mRNA in the presence of chemical substance/The level of expressed mRNA in the absence of chemical substance” value (yeast gene YJL101C) of the same compound?
Answer: Its value is 1.9.

Question: What about the “The level of expressed mRNA in the presence of chemical substance/The level of expressed mRNA in the absence of chemical substance” value (yeast gene YJR104C) of the same compound?
Answer: Its value is 1.8.

Question: And the “The level of expressed mRNA in the presence of chemical substance/The level of expressed mRNA in the absence of chemical substance” value (yeast gene YKL026C)?
Answer: The value was 2.0.

Question: What about the “The level of expressed mRNA in the presence of chemical substance/The level of expressed mRNA in the absence of chemical substance” value (yeast gene YKL064W) of the same compound?
Answer: Its value is 0.9.

Question: What about the “The level of expressed mRNA in the presence of chemical substance/The level of expressed mRNA in the absence of chemical substance” value (yeast gene YKR066C) of the same compound?
Answer: Its value is 1.4.

Question: What about the “The level of expressed mRNA in the presence of chemical substance/The level of expressed mRNA in the absence of chemical substance” value (yeast gene YKR105C) of the same compound?
Answer: Its value is 0.9.

Question: And the “The level of expressed mRNA in the presence of chemical substance/The level of expressed mRNA in the absence of chemical substance” value (yeast gene YKR106W)?
Answer: The value was 0.8.

Question: And the “The level of expressed mRNA in the presence of chemical substance/The level of expressed mRNA in the absence of chemical substance” value (yeast gene YLL028W)?
Answer: Its value is 0.9.

Question: What about the “The level of expressed mRNA in the presence of chemical substance/The level of expressed mRNA in the absence of chemical substance” value (yeast gene YLL057C) of the same compound?
Answer: The value was 59.9.

Question: And the “The level of expressed mRNA in the presence of chemical substance/The level of expressed mRNA in the absence of chemical substance” value (yeast gene YLL060C)?
Answer: The value was 4.2.

Question: And the “The level of expressed mRNA in the presence of chemical substance/The level of expressed mRNA in the absence of chemical substance” value (yeast gene YLR043C)?
Answer: Its value is 1.4.

Question: What about the “The level of expressed mRNA in the presence of chemical substance/The level of expressed mRNA in the absence of chemical substance” value (yeast gene YLR046C) of the same compound?
Answer: Its value is 1.7.

Question: What about the “The level of expressed mRNA in the presence of chemical substance/The level of expressed mRNA in the absence of chemical substance” value (yeast gene YML028W) of the same compound?
Answer: The value was 2.2.

Question: What about the “The level of expressed mRNA in the presence of chemical substance/The level of expressed mRNA in the absence of chemical substance” value (yeast gene YML116W) of the same compound?
Answer: Its value is 1.3.

Question: What about the “The level of expressed mRNA in the presence of chemical substance/The level of expressed mRNA in the absence of chemical substance” value (yeast gene YMR015C) of the same compound?
Answer: Its value is 0.7.

Question: What about the “The level of expressed mRNA in the presence of chemical substance/The level of expressed mRNA in the absence of chemical substance” value (yeast gene YMR038C) of the same compound?
Answer: Its value is 1.7.

Question: What about the “The level of expressed mRNA in the presence of chemical substance/The level of expressed mRNA in the absence of chemical substance” value (yeast gene YNL239W) of the same compound?
Answer: The value was 2.4.

Question: What about the “The level of expressed mRNA in the presence of chemical substance/The level of expressed mRNA in the absence of chemical substance” value (yeast gene YNL241C) of the same compound?
Answer: The value was 2.5.

Question: And the “The level of expressed mRNA in the presence of chemical substance/The level of expressed mRNA in the absence of chemical substance” value (yeast gene YNL259C)?
Answer: The value was 4.5.

Question: What about the “The level of expressed mRNA in the presence of chemical substance/The level of expressed mRNA in the absence of chemical substance” value (yeast gene YOL158C) of the same compound?
Answer: Its value is 4.0.

Question: And the “The level of expressed mRNA in the presence of chemical substance/The level of expressed mRNA in the absence of chemical substance” value (yeast gene YOR031W)?
Answer: Its value is 1.7.

Question: And the “The level of expressed mRNA in the presence of chemical substance/The level of expressed mRNA in the absence of chemical substance” value (yeast gene YOR153W)?
Answer: The value was 0.9.

Question: What about the “The level of expressed mRNA in the presence of chemical substance/The level of expressed mRNA in the absence of chemical substance” value (yeast gene YOR247W) of the same compound?
Answer: The value was 0.6.

Question: What about the “The level of expressed mRNA in the presence of chemical substance/The level of expressed mRNA in the absence of chemical substance” value (yeast gene YOR251C) of the same compound?
Answer: The value was 1.0.

Question: And the “The level of expressed mRNA in the presence of chemical substance/The level of expressed mRNA in the absence of chemical substance” value (yeast gene YOR273C)?
Answer: The value was 1.0.

Question: And the “The level of expressed mRNA in the presence of chemical substance/The level of expressed mRNA in the absence of chemical substance” value (yeast gene YPL163C)?
Answer: The value was 0.7.

Question: What about the “The level of expressed mRNA in the presence of chemical substance/The level of expressed mRNA in the absence of chemical substance” value (yeast gene YPR200C) of the same compound?
Answer: The value was 1.7.
